The text below walks through data of ChEMBL document CHEMBL4610045, “Selective acetylcholinesterase inhibitors derived from muscle relaxant dantrolene” (Bioorg Med Chem Lett, 2020).

In series [1] the target is T1, Acetylcholinesterase (Homo sapiens, UniProt P22303). Kind of series: Inhibition of AChE (unknown origin) using acetylthiocholine iodide as substrate by Ellman's method.
Series [2] addresses T2, BuChE (butyrylcholinesterase) (Homo sapiens, UniProt P06276). Kind of series: (§1) Inhibition of BuChE (unknown origin) at 1 uM relative to control.
For another series, the species on record is Homo sapiens. Kind of series: Selectivity index, ratio of IC50 for BuChE (unknown origin) to IC50 for AChE (unknown origin) using acetylthiocholine iodide as substrate.
Series [3] concerns the target T3, Cholinesterase (Homo sapiens, UniProt P06276). The series can be described thus: Inhibition of BuChE (unknown origin).
The target of series [4] is T1, Acetylcholinesterase. Kind of series: Non-competitive inhibition of AChE (unknown origin) at 100 to 200 nM using acetylthiocholine as substrate by Ellman's method based Lineweaver-Burk plot analysis. On the technique in general: Ellman's reagent forms a yellow product with free thiols.
For series [5], the target named is T3, Cholinesterase. The description is as §1. The settings on record: 1 µM.
Series [6] deals with T1, Acetylcholinesterase. Kind of series: Inhibition of AChE (unknown origin) at 1 uM using acetylthiocholine iodide as substrate by Ellman's method relative to control.
For series [7], the target named is T2, BuChE (butyrylcholinesterase). Kind of series: Inhibition of BuChE (unknown origin) at 20 nM relative to control.

Where a name gives a salt, the structure may show the parent alone. Calls of active or inactive are those of the source. No cut-off for these calls is given here.

T2 sequence (P06276 whole entry): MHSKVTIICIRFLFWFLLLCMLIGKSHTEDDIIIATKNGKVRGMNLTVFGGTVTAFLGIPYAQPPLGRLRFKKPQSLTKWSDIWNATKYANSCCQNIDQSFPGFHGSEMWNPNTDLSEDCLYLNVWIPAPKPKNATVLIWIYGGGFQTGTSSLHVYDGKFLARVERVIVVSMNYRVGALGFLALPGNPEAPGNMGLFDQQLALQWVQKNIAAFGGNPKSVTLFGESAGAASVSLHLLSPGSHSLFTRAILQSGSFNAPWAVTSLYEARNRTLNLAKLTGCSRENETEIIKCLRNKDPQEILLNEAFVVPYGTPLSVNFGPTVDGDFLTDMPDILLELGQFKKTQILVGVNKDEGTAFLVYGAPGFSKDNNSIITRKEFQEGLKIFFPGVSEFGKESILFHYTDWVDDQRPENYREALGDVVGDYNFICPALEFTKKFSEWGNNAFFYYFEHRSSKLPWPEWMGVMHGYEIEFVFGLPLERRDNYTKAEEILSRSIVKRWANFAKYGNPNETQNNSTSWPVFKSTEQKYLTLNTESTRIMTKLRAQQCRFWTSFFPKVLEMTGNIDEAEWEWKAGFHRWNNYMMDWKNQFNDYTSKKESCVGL
T3 sequence (P06276 whole entry): as above
T1 sequence (P22303 whole entry): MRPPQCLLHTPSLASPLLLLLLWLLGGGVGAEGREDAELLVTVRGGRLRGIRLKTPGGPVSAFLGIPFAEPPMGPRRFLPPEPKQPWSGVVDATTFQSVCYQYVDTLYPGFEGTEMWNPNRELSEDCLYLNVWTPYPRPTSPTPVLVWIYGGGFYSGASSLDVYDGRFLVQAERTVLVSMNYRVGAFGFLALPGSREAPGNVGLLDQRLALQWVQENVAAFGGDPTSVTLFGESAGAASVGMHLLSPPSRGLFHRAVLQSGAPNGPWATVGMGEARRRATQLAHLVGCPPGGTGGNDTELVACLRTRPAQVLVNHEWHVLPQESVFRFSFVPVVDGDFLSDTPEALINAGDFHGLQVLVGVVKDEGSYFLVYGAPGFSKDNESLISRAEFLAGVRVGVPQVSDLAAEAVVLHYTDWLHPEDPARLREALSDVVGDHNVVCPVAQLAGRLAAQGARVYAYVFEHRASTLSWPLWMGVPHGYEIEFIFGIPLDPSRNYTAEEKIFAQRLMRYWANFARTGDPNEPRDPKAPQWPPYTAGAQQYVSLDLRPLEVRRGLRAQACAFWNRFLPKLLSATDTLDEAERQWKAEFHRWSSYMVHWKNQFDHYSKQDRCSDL

Turning to `COc1ccccc1-c1ccc(/C=N/N2CC(=O)N(CCC3CCN(Cc4ccccc4)CC3)C2=O)o1`, the IC50 – broadly, the concentration that inhibits the measured activity by half – against Acetylcholinesterase [1] was 90.4 nM. Besides, the inhibition (as a rule, the share of the control response that was lost under treatment) at 1 µM in series [2] stood at 1.6%.
Turning to `O=C1CN(/N=C/c2ccc(-c3ccccc3[N+](=O)[O-])o2)C(=O)N1CCC1CCN(Cc2ccccc2)CC1`, the Ratio IC50 in the series listed under Homo sapiens is 130. Moreover, the half-inhibitory concentration (IC50) on Cholinesterase [3] came out at 4470 nM; at Acetylcholinesterase [1], 34.2 nM. In series [2], the inhibition at 1 µM stood at 14.6%. In addition, the inhibition result on Acetylcholinesterase [4] is “Active”.
On to `COc1ccc(-c2ccc(/C=N/N3CC(=O)N(CCC4CCN(Cc5ccccc5)CC4)C3=O)o2)cc1`, for which the IC50 on Acetylcholinesterase [1] was 108 nM. This compound also displayed an inhibition at 1 µM in series [2] of 4.6%.
For `O=C1CN(/N=C/c2ccc(-c3cccc([N+](=O)[O-])c3)o2)C(=O)N1CCC1CCN(Cc2ccccc2)CC1`, the midpoint of inhibition against Acetylcholinesterase [1], the IC50, lay at 290 nM. Further, the “inhibition (INH)” value at Cholinesterase [5] is reported as “Not Active”.
For `O=C1CN(/N=C/c2ccc(-c3ccc([N+](=O)[O-])cc3)o2)C(=O)N1CC1CCN(Cc2ccccc2)CC1`, the inhibition result at Acetylcholinesterase [6] was “inactive”.
`O=C1CN(/N=C/c2ccc(-c3ccc([N+](=O)[O-])cc3)o2)C(=O)N1CCN1CCN(Cc2ccccc2)CC1` came in with an inhibition at Acetylcholinesterase [6] of 67.9%. Also, half-maximal inhibition against Acetylcholinesterase [1] (IC50) required 201 nM. Further, the “inhibition (INH)” value against Cholinesterase [5] is “Not Active”.
On to `O=C1CN(/N=C/c2ccc(-c3ccc([N+](=O)[O-])cc3)o2)C(=O)N1`, for which, at Acetylcholinesterase [6], the inhibition result is “inactive”.
At Acetylcholinesterase [6], `O=C1CN(/N=C/c2ccc(-c3ccc([N+](=O)[O-])cc3)o2)C(=O)N1CCC1CCN(Cc2ccccc2)CC1` returned an inhibition of 91.3%. For the same compound, the IC50 against Acetylcholinesterase [1] is 46.4 nM. In addition, the “inhibition (INH)” value at Cholinesterase [5] is given as “Not Active”.
As for `Nc1c2c(nc3ccccc13)CCCC2` [TACRINE HYDROCHLORIDE], the inhibition at 0.02 µM in series [7] is 64.5%.
In turn, `COc1cccc(-c2ccc(/C=N/N3CC(=O)N(CCC4CCN(Cc5ccccc5)CC4)C3=O)o2)c1` displayed an IC50 against Acetylcholinesterase [1] of 47 nM. The compound also came in with an inhibition at 1 µM in series [2] of 3.8%.
